Measured values as given in paper PMC2790023 (Journal of medicinal chemistry, 2009).
Entries after “also recorded” stand apart in the source; their conditions may differ.

Experiments:
VHR = VHR (Homo sapiens, UniProt P51452); assay: Ki determination, Michaelis-Menten kinetics with pNPP; format: biochemical
[1] = tested on: VHR, PTP1B, CD45, HePTP, Shp2, and YopH; format: biochemical
HeLa cells [2] = assay: AnnexinV/PI flow cytometry apoptosis assay; conditions: 20 μM, 24 h
CaSki cells = assay: AnnexinV/PI flow cytometry apoptosis assay; conditions: 20 μM, 24 h
HeLa cells [3] = assay: Cell numbers; format: cell-based; conditions: 20 μM, 24 h

Sequence of VHR (P51452 whole entry): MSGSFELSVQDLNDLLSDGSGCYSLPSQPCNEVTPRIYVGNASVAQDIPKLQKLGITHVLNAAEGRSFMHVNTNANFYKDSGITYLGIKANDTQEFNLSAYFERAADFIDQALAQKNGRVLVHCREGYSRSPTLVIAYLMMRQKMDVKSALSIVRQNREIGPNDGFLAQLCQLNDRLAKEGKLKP

Structure (SMILES) | Inhibition pattern (Lineweaver-Burk plot) (VHR) | Ki (VHR; Ki, pNPP substrate) [nM] | Selectivity for VHR in counter screen [1] | Percentage of AnnexinV/PI negative cells versus vehicle (HeLa cells [2]) | Percentage of AnnexinV/PI negative cells versus vehicle (CaSki cells) | HeLa cell numbers, percentage of the DMSO control (HeLa cells [3])
O=C1/C(=C/C=C/c2ccccc2)SC(=S)N1CCS(=O)(=O)O [compound 1, 2-((Z)-4-oxo-5-((E)-3-phenylallylidene)-2-thioxothiazolidin-3-yl)ethane-sulfonic acid] | competitively inhibited VHR; also recorded: clear competitive inhibition pattern | 809 | selectively inhibiting VHR; also recorded: selective for VHR | – | – | –
O=C1/C(=C/c2cn(-c3ccccc3)nc2-c2ccc(OCc3ccccc3Cl)cc2)SC(=S)N1CCS(=O)(=O)O [SA2] | – | – | – | no difference | no difference | –
COc1ccc(OC)c2c1C(=O)c1ccccc1C2=O [compound 8, 1,4-dimethoxyanthracene-9,10-dione] | – | – | selectively inhibiting VHR; also recorded: selective for VHR | – | – | –
O=C1/C(=C/c2cn(-c3ccccc3)nc2-c2ccc(OCc3ccccc3F)cc2)SC(=S)N1CCS(=O)(=O)O [SA3] | – | – | – | no difference | no difference | less than 50%
